Measurements from patent US11760764B2, “Methods and compositions for targeting PD-L1” (Aligos Therapeutics, Inc., priority 2020, dated 2023).
pEC50, pIC50: −log10 of the molar value.

Legend:
[1] = target: PD-1/PD-L1 interaction (PDL1-6×His protein, PD1-Fc-Avi-Biotin protein) (Homo sapiens, UniProt Q9NZQ7); assay: PDL1/PD1 Binding Assay; details: Table C; 0.3 nM PDL1, 2.5 nM PD1; read-out: PD-1/PD-L1 PPI IC50
Protocol: Compounds to be tested were serially diluted in DMSO, and further diluted in assay buffer (25 mM Hepes pH 7.4, 150 mM NaCl, 0.005% Tween 20, BSA 0.01%). Diluted compounds were added to the wells with final concentration of DMSO at 1%. PDL1-6×His protein was added to the wells, mixed well with compound. The plates were incubated for 30 min at room temperature. PD1-Fc-Avi-Biotin protein was added to the wells. […] After a binding time of 30 min at room temperature, Anti-6×His Acceptor beads (final concentration 20 ug/ml) were added to the wells, and the incubation continued for 1 h. Streptavidin Donor beads (final concentration 20 ug/mL) were added at reduced light. The plates were sealed with foil and incubated in the dark for additional 1 h or overnight before reading on an Envision reader. The IC50s were determined by fitting the curves using a four-parameter equation in Graphpad Prism 8.

[2] = target: T1, PD-1/PD-L1 interaction (Jurkat cells overexpressing PD-1 co-cultured with PD-L1 expressing CHO cells) (Homo sapiens, UniProt Q9NZQ7); assay: PD-1/PD-L1 NFAT Reporter Assay; type: cell-based; details: Table C-1; Jurkat/CHO co-culture, 6 hrs at 37° C., luciferase activity
T1 construct: expressed in transfected cells; Jurkat cells (PD-1 and NF-AT luciferase construct)
Protocol: Blocking the PD-1/PD-L1 interaction will release the inhibitory signal and results in TCR signaling and NFAT-mediated luciferase activity.
CHO cells expressing surface-bound anti-CD3 antibodies and PD-L1 were first seeded overnight and treated with the compounds. Jurkat cells overexpressing PD-1 and a luciferase construct under NF-AT promoter were then immediately seeded on the monolayer of CHO cells. The co-culture was then incubated for 6 hrs at 37° C. Luciferase activity was assessed by adding the ONE-Glo reagent and measuring luminescence with a plate reader. EC50s values were determined from the fit of the dose-response curves

T1 sequence (Q9NZQ7 19-290): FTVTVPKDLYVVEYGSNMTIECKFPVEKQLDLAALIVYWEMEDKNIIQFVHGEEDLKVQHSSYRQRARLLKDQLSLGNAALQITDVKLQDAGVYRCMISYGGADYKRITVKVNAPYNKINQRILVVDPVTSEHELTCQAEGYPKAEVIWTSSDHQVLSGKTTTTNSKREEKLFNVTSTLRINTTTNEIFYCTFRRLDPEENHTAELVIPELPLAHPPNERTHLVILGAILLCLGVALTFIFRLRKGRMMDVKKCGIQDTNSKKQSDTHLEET
Sequence of PD-1/PD-L1 interaction (PDL1-6×His protein, PD1-Fc-Avi-Biotin protein) (Q9NZQ7 19-238 limits assumed): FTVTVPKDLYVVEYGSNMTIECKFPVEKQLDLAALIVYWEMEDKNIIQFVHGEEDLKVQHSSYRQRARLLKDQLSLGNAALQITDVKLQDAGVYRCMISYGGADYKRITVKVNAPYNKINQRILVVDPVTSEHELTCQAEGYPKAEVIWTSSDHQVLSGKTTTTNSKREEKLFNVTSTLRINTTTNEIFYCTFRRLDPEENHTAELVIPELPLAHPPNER

| Compound | pIC50 [1] | other results |
| --- | --- | --- |
| O=C(O)C[C@H](O)CN1CCc2nc(-c3cccc(-c4cccc(-c5ccc6c(n5)CCN(C[C@@H](O)CC(=O)O)C6)c4Cl)c3Cl)ccc2C1 [Compound C-3] | 6.00 to 7.00 | – |
| Clc1c(-c2ccc3c(c2)CC(N2CCOCC2)C3)cccc1-c1cccc(-c2ccc3c(c2)CC(N2CCOCC2)C3)c1Cl (stereo not shown) [Compound A-8] | 6.00 to 7.00 | – |
| CC(=O)NCCNC1CCc2cc(-c3cccc(-c4cccc(-c5ccc6c(c5)CCC6NCCNC(C)=O)c4Cl)c3Cl)ccc21 (stereo not shown) [Compound A-3] | 7.00 to 8.00 | – |
| O=C(O)C[C@H](O)CN1CCOc2nc(-c3cccc(-c4cccc(-c5ccc6c(n5)OCCN(C[C@@H](O)CC(=O)O)C6)c4Cl)c3Cl)ccc2C1 [Compound C-5] | 5.00 to 6.00 | – |
| O=C(O)CNC1Cc2ccc(-c3cccc(-c4cccc(-c5ccc6c(c5)CC(NCC(=O)O)C6)c4Cl)c3Cl)cc2C1 (stereo not shown) [Compound A-5] | ≥ 8.00 | – |
| O=C(O)CNC1CCc2cc(-c3cccc(-c4cccc(-c5ccc6c(c5)CCC6NCC(=O)O)c4Cl)c3Cl)ccc21 (stereo not shown) [Compound A-1] | ≥ 8.00 | – |
| Fc1cc(-c2cccc(-c3cccc(-c4cc(F)c5c(c4)CCNC5)c3Cl)c2Cl)cc2c1CNCC2 [Compound B-10] | 7.00 to 8.00 | – |
| COc1cc(-c2cccc(-c3cccc(-c4cc5c(c(OC)c4)[C@@H](N4CC(C(=O)O)C4)CC5)c3Cl)c2Cl)cc2c1[C@H](NC[C@@H]1CCC(=O)N1)CC2 (single isomer, unassigned) [Compound N-3B] | – | pEC50 [2]: 7.00 to 8.00 |
| O=C1CC[C@@H](CNC2Cc3ccc(-c4cccc(-c5cccc(-c6ccc7c(c6)CC(O)C7)c5Cl)c4Cl)cc3C2)N1 (stereo partly shown) [Compound A-7] | 6.00 to 7.00 | – |
| COc1cc(-c2cccc(-c3cccc(-c4cc5c(c(OC)c4)[C@@H](NC[C@@H]4CCC(=O)N4)CC5)c3Cl)c2Cl)cc2c1[C@@H](NC[C@@H]1CCC(=O)N1)CC2 (single isomer, unassigned) [Compound L-2] | – | pEC50 [2]: < 5.00 |
| O=C1CC[C@@H](CNC2Cc3ccc(-c4cccc(-c5cccc(-c6ccc7c(c6)CC(NC[C@@H]6CCC(=O)N6)C7)c5Cl)c4Cl)cc3C2)N1 (stereo partly shown) [Compound A-6] | ≥ 8.00 | – |
| COc1cc(-c2cccc(-c3cccc(-c4cc5c(c(OC)c4)[C@@H](N4CC(C(=O)O)C4)CC5)c3Cl)c2Cl)cc2c1[C@@H](NC[C@@H]1CCC(=O)N1)CC2 (single isomer, unassigned) [Compound N-2B] | – | pEC50 [2]: 6.00 to 7.00 |
| COCCN1CCc2c(cc(-c3cccc(-c4cccc(-c5cc6c(c(OC)c5)[C@@H](N5CC(C(=O)O)C5)CC6)c4Cl)c3Cl)nc2OC)C1 [Compound O-2B] | – | pEC50 [2]: 7.00 to 8.00 |
| Clc1c(-c2ccc3c(n2)CCNC3)cccc1-c1cccc(-c2ccc3c(n2)CCNC3)c1Cl [Compound B-3] | 7.00 to 8.00 | – |
| O=C(O)C[C@H](O)CN1CCc2cc(-c3cccc(-c4cccc(-c5cc6c(cn5)CN(C[C@@H](O)CC(=O)O)CC6)c4Cl)c3Cl)ncc2C1 [Compound C-4] | 7.00 to 8.00 | – |
| CC(=O)NCCNC1Cc2ccc(-c3cccc(-c4cccc(-c5ccc6c(c5)CC(NCCNC(C)=O)C6)c4Cl)c3Cl)cc2C1 (stereo not shown) [Compound A-4] | 7.00 to 8.00 | – |
| CC1Cc2cc(-c3cccc(-c4cccc(-c5ccc6c(c5)CC(C)NC6)c4Cl)c3Cl)ccc2CN1 (stereo not shown) [Compound B-13] | 7.00 to 8.00 | – |
| Clc1c(-c2ccc3c(c2)CCNC3)cccc1-c1cccc(-c2ccc3c(c2)CCNC3)c1Cl [Compound B-1] | ≥ 8.00 | – |
| CCOC(=O)C1CN([C@H]2CCc3cc(-c4cccc(-c5cccc(-c6cc7c(c(OC)n6)[C@@H](NC[C@@H]6CCC(=O)N6)CC7)c5Cl)c4Cl)nc(OC)c32)C1 (single isomer, unassigned) [Compound N-1A] | – | pEC50 [2]: 7.00 to 8.00 |

| Compound | pIC50 [1] | other results |
| --- | --- | --- |
| COc1cc(-c2cccc(-c3cccc(-c4cc5c(c(OC)c4)[C@H](NC[C@@H]4CCC(=O)N4)CC5)c3Cl)c2Cl)cc2c1[C@H](NC[C@@H]1CCC(=O)N1)CC2 (single isomer, unassigned) [Compound L-1] | – | pEC50 [2]: 7.00 to 8.00 |
| N[C@H]1CCc2cc(-c3cccc(-c4cccc(-c5ccc6c(c5)CC[C@@H]6N)c4Cl)c3Cl)ccc21 [Compound B-7] | 6.00 to 7.00 | – |
| O=C(O)C[C@H](O)CN1CCc2cc(-c3cccc(-c4cccc(-c5ccc6c(c5)CCN(C[C@@H](O)CC(=O)O)C6)c4Cl)c3Cl)ccc2C1 [Compound C-2] | ≥ 8.00 | – |
| Cc1c(-c2cccc(-c3cccc(-c4ccc5c(c4C)CNCC5)c3Cl)c2Cl)ccc2c1CNCC2 [Compound B-15] | 5.00 to 6.00 | – |
| CCOC(=O)C1CN([C@H]2CCc3cc(-c4cccc(-c5cccc(-c6cc7c(c(OC)c6)[C@@H](NC[C@@H]6CCC(=O)N6)CC7)c5Cl)c4Cl)cc(OC)c32)C1 (single isomer, unassigned) [Compound N-2A] | – | PD-1/PD-L1 NFAT Reporter Assay [2]: n.r |
| CC1(C)CNCc2ccc(-c3cccc(-c4cccc(-c5ccc6c(c5)C(C)(C)CNC6)c4Cl)c3Cl)cc21 [Compound B-9] | 5.00 to 6.00 | – |
| N[C@@H]1CCc2cc(-c3cccc(-c4cccc(-c5ccc6c(c5)CC[C@H]6N)c4Cl)c3Cl)ccc21 [Compound B-8] | 6.00 to 7.00 | – |
| Clc1c(-c2ccc3c(n2)OCCNC3)cccc1-c1cccc(-c2ccc3c(n2)OCCNC3)c1Cl [Compound B-5] | 6.00 to 7.00 | – |
| O=C(O)C[C@H](O)CN1Cc2ccc(-c3cccc(-c4cccc(-c5ccc6c(c5)CN(C[C@@H](O)CC(=O)O)C6)c4Cl)c3Cl)cc2C1 [Compound C-1] | ≥ 8.00 | – |
| COc1nc(-c2cccc(-c3cccc(-c4cc5c(c(OC)n4)[C@@H](NC[C@@H]4CCC(=O)N4)CC5)c3Cl)c2Cl)cc2c1[C@@H](NC[C@@H]1CCC(=O)N1)CC2 [Compound L-3] | – | pEC50 [2]: ≥ 8.00 |
| Clc1c(-c2cc3c(cn2)CNCC3)cccc1-c1cccc(-c2cc3c(cn2)CNCC3)c1Cl [Compound B-4] | 7.00 to 8.00 | – |
| COc1cc(-c2cccc(-c3cccc(-c4cc5c(c(OC)c4)CNCC5)c3Cl)c2Cl)cc2c1CNCC2 [Compound B-17] | 7.00 to 8.00 | – |
| CCOC(=O)C1CN(C2CCc3cc(-c4cccc(-c5cccc(-c6cc7c(c(OC)n6)CCN(CCOC)C7)c5Cl)c4Cl)cc(OC)c32)C1 (single isomer, unassigned) [Compound O-2A] | – | pEC50 [2]: 6.00 to 7.00 |
| COc1nc(-c2cccc(-c3cccc(-c4cc5c(c(OC)n4)[C@@H](N4CC(C(=O)O)C4)CC5)c3Cl)c2Cl)cc2c1[C@@H](NC[C@@H]1CCC(=O)N1)CC2 (single isomer, unassigned) [Compound N-1B] | – | pEC50 [2]: ≥ 8.00 |
| Clc1c(-c2ccc3c(c2)COC32CNC2)cccc1-c1cccc(-c2ccc3c(c2)COC32CNC2)c1Cl [Compound B-12] | 5.00 to 6.00 | – |
| Cc1cc2c(cc1-c1cccc(-c3cccc(-c4cc5c(cc4C)CNCC5)c3Cl)c1Cl)CCNC2 [Compound B-16] | 6.00 to 7.00 | – |
| Clc1c(-c2ccc3c(c2)CNC3)cccc1-c1cccc(-c2ccc3c(c2)CNC3)c1Cl [Compound B-2] | 7.00 to 8.00 | – |
| O=C(O)C[C@H](O)CN1CCc2ccc(-c3cccc(-c4cccc(-c5ccc6c(c5)CN(C[C@@H](O)CC(=O)O)CC6)c4Cl)c3Cl)cc2C1 [Compound C-6] | ≥ 8.00 | – |
| Cc1c(-c2cccc(-c3cccc(-c4ccc5c(c4C)CCNC5)c3Cl)c2Cl)ccc2c1CCNC2 [Compound B-14] | 6.00 to 7.00 | – |

More lines, main results first:

| pIC50 [1] | Compound | other results |
| --- | --- | --- |
| 6.00 to 7.00 | CCOC(=O)CN[C@H]1CCc2cc(-c3cccc(-c4cccc(-c5ccc6c(c5)CC[C@@H]6NCC(=O)OCC)c4Cl)c3Cl)ccc21 [Compound F-1] | – |
| 7.00 to 8.00 | N[C@@H](CC(=O)O)C(=O)N1CCc2ccc(-c3cccc(-c4cccc(-c5ccc6c(c5)CN(C(=O)[C@@H](N)CC(=O)O)CC6)c4Cl)c3Cl)cc2C1 [Compound J-1] | – |
| ≥ 8.00 | O=C(O)CN1CCc2ccc(-c3cccc(-c4cccc(-c5ccc6c(c5)CN(CC(=O)O)CC6)c4Cl)c3Cl)cc2C1 [Compound H-1] | – |
| < 5.00 | CC(=O)N1CC(N2CCOc3nc(-c4cccc(-c5cccc(-c6ccc7c(n6)OCCN(C6CN(C(C)=O)C6)C7)c5Cl)c4Cl)ccc3C2)C1 [Compound I-1] | – |
| 6.00 to 7.00 | CC1(C)CN(C[C@@H](O)CC(=O)O)Cc2ccc(-c3cccc(-c4cccc(-c5ccc6c(c5)C(C)(C)CN(C[C@@H](O)CC(=O)O)C6)c4Cl)c3Cl)cc21 [Compound C-7] | – |
| ≥ 8.00 | O=C(O)C[C@H](O)CN1CCc2cc(-c3cccc(-c4cccc(-c5cc(F)c6c(c5)CCN(C[C@@H](O)CC(=O)O)C6)c4Cl)c3Cl)cc(F)c2C1 [Compound C-8] | – |
| 7.00 to 8.00 | O=C(O)CN1CC2(C1)OCc1cc(-c3cccc(-c4cccc(-c5ccc6c(c5)COC65CN(CC(=O)O)C5)c4Cl)c3Cl)ccc12 [Compound H-4] | – |
| ≥ 8.00 | CC1Cc2cc(-c3cccc(-c4cccc(-c5ccc6c(c5)CC(C)N(C[C@@H](O)CC(=O)O)C6)c4Cl)c3Cl)ccc2CN1C[C@@H](O)CC(=O)O (stereo partly shown) [Compound C-9] | – |
| 5.00 to 6.00 | Clc1c(-c2ccc3c(c2)CCNC3)cccc1-c1cccc(-c2ccc3c(c2)CCN(c2ncccn2)C3)c1Cl [Compound K-1] | – |
| 6.00 to 7.00 | O=C(O)CN1CCC12CCc1cc(-c3cccc(-c4cccc(-c5ccc6c(c5)CCC5(CCN5CC(=O)O)C6)c4Cl)c3Cl)ccc1C2 (stereo not shown) [Compound H-3] | – |
| ≥ 8.00 | O=C(O)CN1CCc2cc(-c3cccc(-c4cccc(-c5ccc6c(c5)CCN(CC(=O)O)C6)c4Cl)c3Cl)ccc2C1 [Compound H-2] | – |
